From publication PMC6222606, “Biodegradation of 7-Hydroxycoumarin in Pseudomonas mandelii 7HK4 via ipso-Hydroxylation of 3-(2,4-Dihydroxyphenyl)-propionic Acid” (Molecules : A Journal of Synthetic Chemistry and Natural …, 2018)

Molecular target: T1, HcdB (Pseudomonas mandelii, UniProt A0A385IUB9)
T1 sequence (A0A385IUB9 1-186): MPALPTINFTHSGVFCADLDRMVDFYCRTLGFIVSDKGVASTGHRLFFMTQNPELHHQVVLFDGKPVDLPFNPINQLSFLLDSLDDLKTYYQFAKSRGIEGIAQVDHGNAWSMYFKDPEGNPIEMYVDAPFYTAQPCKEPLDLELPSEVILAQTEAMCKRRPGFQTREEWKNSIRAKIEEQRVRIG
Test: whole-cell bioconversion, UV-VIS of yellow meta-cleavage product; cells without hcdB inactive
Type: cell-based
Settings: […] potassium phosphate pH […] °C, […] substrate

**Q.** With `Oc1ccccc1O` [pyrocatechol] as the molecule, how does the “whole-cell bioconversion, UV-VIS of yellow meta-cleavage product; cells without” value read?
**A.** Its value is “HcdB is capable oxidizing pyrocatechol, 3-methylcatechol, 3-methoxycatechol, 4-methylcatechol”.
